# Assay results taken from US9610274B2, “Methods for treating bipolar disorder” (priority 2010, dated 2017).
# “Also recorded” adds a separate entry of the source.
# Tested on: homozygous mutant dopamine transporter knockout (KO) mice
# Assay: Spontaneous activity in the open field, dopamine transporter KO mice
# Type: in vivo
# Procedure: Male and female wild-type and homozygous mutant dopamine transporter KO mice (n˜10 mice/genotype/agent; produced by in vivo homologous recombination and bred at Duke University Medical Center, Durham, N.C.) were tested for spontaneous activity in the open field following a single injection of the vehicle or compound. […] All drugs were given in a volume of 5 mL/kg. Animals were returned to the open field for an additional 90 min. Spontaneous activity was evaluated in an automated Omnitech Digiscan apparatus (Accuscan Instruments, Columbus, Ohio). Activity was summated at 5 min intervals over the 2 h period of testing. Horizontal activity or locomotion was measured in terms of the total distance covered in cm, vertical activity or rearing was expressed in terms of the total numbers of vertical beam breaks, and stereotypy was quantified in terms of repetitive breaks of a given beam or beams with intervals of less than 1 sec. For the analyses, 10 WT and 10 KO mice were run in each of the treatment groups with approximately equal numbers of males and females assigned to each group. Data were analyzed by the Statistical Package for Social Sciences programs (version 11.0 for Windows; SPSS Science, Chicago, Ill.). The results for each dependent variable were analyzed by repeated analyses of variance (RMANOVA) for within subjects effects (group differences over time) and between-subjects effects (tests of main effects and interactions). Bonferroni corrected pair-wise comparisons were used as the post-hoc tests. A p <0.05 was considered significant.
smiles,measurement,setting,value
"NC(=O)OC[C@H](N)Cc1ccccc1 [test compound, O-carbamoyl-(D)-phenylalaninol]","spontaneous activity (locomotor, rearing and stereotypical activities)","single SC injection, test compound 10, 30, 100 mg/kg, amphetamine 2 mg/kg, 90 min post-injection, relative to vehicle",selectively reduced activity of the KO mice in a dose-dependent manner; also recorded: reduced activities in a dose-dependent fashion
same,spontaneous activity compared with amphetamine,test compound 100 mg/kg SC versus amphetamine 2 mg/kg SC,suppressed activities more efficiently than amphetamine
